Measured values from patent US9375436B2, “Androgen treatment in females” (priority 2004, dated 2016).
Several values for one entry are separate records, joined by “and”; a condition that tells them apart may be missing. Equal values may be shown once.

Columns and labels:
[1] = tested on: embryos of women undergoing IVF; test: Pre-implantation genetic diagnosis, euploidy rate by length of DHEA usage (Example 3); format: in vivo, human
Experimental: In another study (data not shown), patients were analyzed after four weeks of DHEA treatment. Seven patients had embryos tested by pre-implantation genetic diagnosis (PGD). In three women who had PGD after less than four weeks of DHEA usage and a mean age 41.5±5.1 at the time of starting IVF cycles, the euploidy, or normal chromosome number, rate was 2/30 embryos (6.6%). […] There is a mean age difference between patients who underwent IVF after less than four weeks of DHEA usage (mean age 41.5±5.1) and patients who underwent IVF after at least four weeks of DHEA usage (mean age 43.7±1.3).

[2] = tested on: patients with evidence of decreased ovarian reserve; test: IVF cycles before and after DHEA treatment (Example 2); format: in vivo, human
Experimental: Cumulative embryo score is determined by scoring day 3 embryos and multiplying the number of cells in the embryo by the embryo grade. Embryo grade is a judgment of the embryologist on embryo quality from 1 to 5. Most good embryos are scored 4, with 5 reserved for exceptional embryos. The grade is based on the uniformity of the cells, the color and consistency of the cytoplasm, and the amount of fragmentation. Normal embryos are less than 5% fragmented. A person with three eight cell embryos each with a grade of four would have a cumulative embryos score of 96, the product of 3×8×4.
In another study, thirty (30) patients with evidence of decreased ovarian reserve were given supplemental DHEA 25 mg three times a day, for a total of 75 mg per day, for an average of about 4 months before beginning ovulation induction for IVF. Twelve patients contributed data from cycles both pre-DHEA and post-DHEA, eleven patients contributed data from cycles only pre-DHEA, and seven patients contributed data from cycles only post-DHEA. Patients' response to ovulation induction before DHEA treatment was compared to patients' response to ovulation induction after DHEA treatment with regard to peak estradiol, oocyte production, and embryos transferred and embryo quality.

[3] = tested on: women with diminished ovarian reserve; test: Miscarriage rates in DHEA pregnancies at two centers versus 2004 national US IVF data (Example 8); format: in vivo, human
Experimental: Based on reported clinical experiences, the indications for DHEA supplementation have changed over the years, with women above age 40 since 2007 receiving routine supplementation, and younger women receiving supplementation only selectively.
DHEA supplementation involves the use of pharmaceutical grade micronized DHEA at a dosage of about 25 mg, three times daily. Patients are on DHEA supplementation for at least about two months prior to oocyte retrieval. This period of minimal pretreatment is based on the recognition that at two months pregnancy curves between DHEA pretreated and control patients statistically diverge. DHEA is maintained until pregnancy is established and is discontinued with positive pregnancy test.
Toronto West Fertility Associates, in Toronto, Canada, started utilizing DHEA independent of the use of DHEA at the Center for Human Reproduction (CHR) in New York, N.Y. In December of 2007, Toronto's medical director forwarded a detailed electronic record of the center's all-inclusive DHEA experience for analysis to CHR. This study, therefore, reports on the miscarriage rate of pregnancies, independently established under DHEA supplementation at both fertility centers, and compares these rates, age-stratified, to miscarriage rates reported in a national IVF data base in the U.S. for the year 2004. The definitions of clinical pregnancy, and of miscarriage, used herein follow the reporting requirements of this national data base, defining a clinical pregnancy as a pregnancy, confirmed by ultrasound examination.
Miscarriage rates of DHEA supplemented patients were compared with national IVF outcome statistics, reported annually under Federal mandate by the Centers for Disease Control. The data utilized for this study reflect 2004 United States national statistics. Pregnancy and miscarriage rates at the two centers were pooled after confirmation of homogeneity of variance. Common odds ratios of the pooled miscarriage rates among age stratified pregnant patients were compared between the pooled rates and the 2004 US national rates utilizing the Mantel-Haenszel common odds ratio. Statistical analyses were performed using SPSS Windows, standard version 15.0.
DHEA supplementation: After approval by the center's institutional review board, the Center for Human Reproduction (CHR) in New York City has been utilizing DHEA supplementation in women with diminished ovarian reserve since 2004. Based on reported clinical experiences, the indications for such supplementation have changed over the years: In initial stages, only older women, above age 42, were supplemented and only if they had failed at least one IVF cycle and less than 4 oocytes had been retrieved in confirmation of ovarian resistance to stimulation. By mid-2005, indications were expanded to all women above age 40 with evidence of ovarian resistance and a history of one failed prior IVF cycle. […] By mid-2006 FSH baseline criteria were changed from absolute FSH elevations to elevations in age-specific FSH levels.
DHEA supplementation in all patients involves oral, pharmaceutical grade micronized medication at a dosage of 25 mg, three times daily (TID). Only morbidly obese women receive an increased daily dosage of 100 mg and no such women were involved in this study. […] Limited patient volume and funding sources have prevented dose response studies and 25 mg DHEA TID daily has, therefore, remained the only standard treatment dosage. Patients receive at least two months of DHEA supplementation prior to oocyte retrieval, unless they conceive spontaneously during that time period. This minimum pretreatment period is based on the recognition that at two months pregnancy curves between DHEA pretreated and control patients statistically diverge. DHEA is maintained until pregnancy, and is discontinued with second positive pregnancy test. […]

[4] = tested on: patients with prior clomiphene citrate failures; conditions: 47 patients, 75 mg daily DHEA at least 60 days prior to inseminations; cited from earlier work
[5] = Post DHEA, 19 cycles, 16.1 ± 2.4 weeks of DHEA 75 mg per day

With `C[C@]12CC[C@H](O)CC1=CC[C@@H]1[C@@H]2CC[C@]2(C)C(=O)CC[C@@H]12` [DHEA, Dehydroepiandrosterone] the euploidy rate ([1]; PGD after less than four weeks of DHEA usage, three women, 2/30 embryos) was 6.6%, the euploidy rate ([1]; PGD after more than four weeks of DHEA usage, six patients, 8/27 embryos) was 29.6% and the “patients with continuing pregnancies” value ([2]; 5 of 45 patients) was 11%. The “patients using DHEA who have conceived” value ([2]; 7 of 45 patients) was 16%, the “mean increase in the number of fertilized oocytes (paired comparisons)” value ([2]; 12 patients) was 1.42±0.63 and the “Average Day 3 embryo cell count” value ([2]; Post DHEA, 19 cycles) was 4.5 ± 0.5. The “Average Day 3 embryo grade” value ([2]; Post DHEA, 19 cycles) was 2.8 ± 0.3, the Fertilized eggs ([2]; Post DHEA, 19 cycles) was 4.6 ± 0.8 and the “Number of Day 3 embryos” value ([2]; Post DHEA, 19 cycles) was 3.2 ± 0.6. For the same molecule, the Oocytes ([2]; Post DHEA, 19 cycles) was 5.8 ± 1.0, the “Peak Estradiol” value ([2]; Post DHEA, 19 cycles) was 1192 ± 904 and the Transferred embryos ([2]; Post DHEA, 19 cycles) was 2.6 ± 0.4. The Cancellation [2, 5] was 5%, the “Cancellation (cycles cancelled / cycles)” value [2, 5] was 1 of 19 and 1/19 and the “Positive hCG (per transfer cycle)” value ([2]; Post DHEA, cycles after an average of 4 months of DHEA treatment) was 4/18. For the same molecule, the “increase in cumulative embryo score” value ([2]; after versus prior to DHEA use) was “about 64”, the “improved overall embryo score, model adjusted for oocyte number” value ([2]; post versus pre DHEA) was 32.8 and the “increased fertilization, model adjusted for oocyte number” value ([2]; post versus pre DHEA) was 1.93 fertilized oocytes. For the same molecule, the “increased numbers of day-three embryos, model adjusted for oocyte number” value ([2]; post versus pre DHEA) was 1.36 embryos, the “clinical miscarriage rate, Toronto” value ([3]; 33 DHEA pregnancies, five miscarriages) was 15.2% and the “clinical miscarriage rate, New York” value ([3]; 40 DHEA pregnancies, six miscarriages) was 15.0%. For the same molecule, the “Misc. Rate (%)” value ([3]; NY, age 35-37) was 0.0%, the Miscarriages ([3]; NY, age 35-37, 5 pregnancies) was 0 and the “Misc. Rate (%)” value ([3]; NY, age 38-40) was 0.0%. For the same molecule, the Miscarriages ([3]; NY, age 38-40, 6 pregnancies) was 0, the “Misc. Rate (%)” value ([3]; NY, age 41-42) was 20.0% and the Miscarriages ([3]; NY, age 41-42, 10 pregnancies) was 2. For the same molecule, the “Misc. Rate (%)” value ([3]; NY, age <35) was 10.0%, the Miscarriages ([3]; NY, age <35, 10 pregnancies) was 1 and the “Misc. Rate (%)” value ([3]; NY, age >42) was 33.3%. The Miscarriages ([3]; NY, age >42, 9 pregnancies) was 3, the “Misc. Rate (%)” value ([3]; TO, age 35-37) was 10.0% and the Miscarriages ([3]; TO, age 35-37, 10 pregnancies) was 1. The “Misc. Rate (%)” value ([3]; TO, age 38-40) was 23.1%, the Miscarriages ([3]; TO, age 38-40, 13 pregnancies) was 3 and the Miscarriages ([3]; TO, age 41-42, 0 pregnancies) was 0. The “Misc. Rate (%)” value ([3]; TO, age <35) was 14.3%, the Miscarriages ([3]; TO, age <35, 7 pregnancies) was 1 and the “Misc. Rate (%)” value ([3]; TO, age >42) was 0.0%. For the same molecule, the Miscarriages ([3]; TO, age >42, 3 pregnancies) was 0, the “Misc. Rate (%)” value ([3]; TOTAL both centers, age 35-37) was 6.7% and the “Misc. Rate (%)” value ([3]; TOTAL both centers, age 38-40) was 15.8%. For the same molecule, the “Misc. Rate (%)” value ([3]; TOTAL both centers, age 41-42) was 20.0%, the “Misc. Rate (%)” value ([3]; TOTAL both centers, age <35) was 11.8% and the “Misc. Rate (%)” value ([3]; TOTAL both centers, age >42) was 25.0%. For the same molecule, the “reduction in miscarriage risk” value ([3]; first statistical model (age-stratified odds ratio)) was “approximately 50%”, the “decline in miscarriages, depending on statistical method” value ([3]; versus national US IVF pregnancies) was 50-80% and the live births [4] was 21.3%. For the same molecule, the pregnancy rate [4] was 29.8%.
